Test results reported in the supplement of paper PMC11061612.

What was measured:
Test in all cases: combination Emax (second highest fraction inhibited in the dose matrix, 72 h); higher = more inhibition; extreme values may be limits of the assay
[1] = tested on: T98G (Glioblastoma)
Method in brief: (§1)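 After 24 hours at 37°C and 5% CO2 in 1536-well plates, cells in DMEM/F12 or RPMI plus 10% FBS received two-drug dose matrices for 72 hours. Viability came from CellTiter-Glo 2.0 luminescence and was scaled as inhibition, anchored at 0 by vehicle wells and at 1 by blank wells. Combination Emax is taken as the second-highest inhibition in the matrix, and Bliss excess as the observed combination effect less EA + EB − EA·EB, with EA and EB the single-agent effects.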

[2] = tested on: COLO-205 (Colorectal Carcinoma)
Method in brief: as §1

[3] = tested on: B-CPAP (Thyroid Gland Carcinoma)
Method in brief: as §1

[4] = tested on: HT-1376 (Bladder Carcinoma)
Method in brief: as §1

[5] = tested on: AGS (Gastric Carcinoma)
Method in brief: as §1

[6] = tested on: MDA-MB-361 (Breast Carcinoma)
Method in brief: as §1

[7] = tested on: SK-ES-1 (Ewing's Sarcoma)
Method in brief: as §1

[8] = tested on: LS-180 (Colorectal Carcinoma)
Method in brief: as §1

[9] = tested on: NCI-H82 (Small Cell Lung Carcinoma)
Method in brief: as §1

[10] = tested on: HO-1-N-1 (Oral Cavity Carcinoma)
Method in brief: as §1

[11] = tested on: DoTc2-4510 (Cervical Carcinoma)
Method in brief: as §1

[12] = tested on: Hs-578-T (Breast Carcinoma)
Method in brief: as §1

Row | Compound | combination Emax [1] | combination Emax [2] | combination Emax [3] | combination Emax [4] | combination Emax [5] | combination Emax [6] | combination Emax [7] | combination Emax [8] | combination Emax [9] | combination Emax [10] | combination Emax [11] | combination Emax [12]
1 | Cn1cnc2c(F)c(Nc3ccc(Br)cc3Cl)c(C(=O)NOCCO)cc21 [Selumetinib] + CCN(CCO)CCCOc1ccc2c(Nc3cc(CC(=O)Nc4cccc(F)c4)[nH]n3)ncnc2c1 [AZD2811] (first compound max 10 µM, 7x7, partner max 1 µM) | 0.226 | 0.983 | 0.346 | 0.198 | 0.954 | 0.193 | 0.96 | 0.623 | 0.442 | 0.737 | 0.224 | 0.491
2 | Cn1cnc2c(F)c(Nc3ccc(Br)cc3Cl)c(C(=O)NOCCO)cc21 [Selumetinib] + C=CCn1c(=O)c2cnc(Nc3ccc(N4CCN(C)CC4)cc3)nc2n1-c1cccc(C(C)(C)O)n1 [AZD1775] (first compound max 10 µM, partner max 1 µM) | 0.699 | 0.85 | 0.472 | 0.362 | 0.932 | 0.819 | 0.944 | 0.604 | 0.855 | 0.718 | 0.251 | 0.577
3 | COc1nnc2ccc(N3CCC(c4ccc(OCCN5CCN(C)C(=O)[C@H]5C)cc4)CC3)nn12 [AZD5153] + C[C@@H]1COCCN1C2=NC(=NC(=C2)C3(CC3)[S@](=N)(=O)C)C4=C5C=CNC5=NC=C4 [AZD6738] (first compound max 1 µM, 7x7, partner max 10 µM) | 0.798 | 0.83 | 0.72 | 0.481 | 0.959 | 0.82 | 0.929 | 0.767 | 0.878 | 0.795 | 0.511 | 0.8
4 | Cn1cnc2c(F)c(Nc3ccc(Br)cc3Cl)c(C(=O)NOCCO)cc21 [Selumetinib] + C[C@@H]1COCCN1C2=NC(=NC(=C2)C3(CC3)[S@](=N)(=O)C)C4=C5C=CNC5=NC=C4 [AZD6738] (first compound max 10 µM, 7x7, partner max 10 µM) | 0.731 | 0.76 | 0.421 | 0.467 | 0.986 | 0.795 | 0.82 | 0.76 | 0.756 | 0.763 | 0.392 | 0.628
5 | CC1(C)CCC(CN2CCN(c3ccc(C(=O)NS(=O)(=O)c4ccc(NCC5CCOCC5)c([N+](=O)[O-])c4)c(Oc4cnc5[nH]ccc5c4)c3)CC2)=C(c2ccc(Cl)cc2)C1 [Venetoclax] + C=CCn1c(=O)c2cnc(Nc3ccc(N4CCN(C)CC4)cc3)nc2n1-c1cccc(C(C)(C)O)n1 [AZD1775] (first compound max 1 µM, partner max 1 µM) | 0.889 | 0.606 | 0.502 | 0.338 | 0.595 | 0.865 | 0.987 | 0.42 | 0.917 | 0.745 | 0.633 | 0.909
6 | CC1(C)CCC(CN2CCN(c3ccc(C(=O)NS(=O)(=O)c4ccc(NCC5CCOCC5)c([N+](=O)[O-])c4)c(Oc4cnc5[nH]ccc5c4)c3)CC2)=C(c2ccc(Cl)cc2)C1 [Venetoclax] + C[C@@H]1COCCN1C2=NC(=NC(=C2)C3(CC3)[S@](=N)(=O)C)C4=C5C=CNC5=NC=C4 [AZD6738] (first compound max 1 µM, 7x7, partner max 10 µM) | 0.889 | 0.344 | 0.631 | 0.432 | 0.72 | 0.884 | 0.914 | 0.728 | 0.86 | 0.871 | 0.603 | 0.909
7 | CN(CCO)CC[C@H](CSc1ccccc1)Nc1ccc(S(=O)(=O)NC(=O)c2ccc(N3CCC([C@@H](O)c4ccccc4-c4ccc(Cl)cc4)CC3)cc2)cc1S(=O)(=O)C(F)(F)F [AZD4320] + Cc1cc2ncnn2cc1Nc1ncc2c(n1)n(C1CCOCC1)c(=O)n2C [AZD7648] (first compound max 1 µM, 7x7, partner max 10 µM) | 0.255 | 0.669 | 0.408 | 0.786 | 0.318 | 0.459 | 0.911 | 0.234 | 0.299 | 0.226 | 0.499 | 0.63
8 | COc1cc2ncnc(Nc3ccc(F)c(Cl)c3)c2cc1OCCCN1CCOCC1 [Gefitinib] + CC(C)n1c(=O)n(C)c2cnc3cc(F)c(-c4ccc(OCCCN5CCCCC5)nc4)cc3c21 [AZD1390] (first compound max 10 µM, 7x7, partner max 0.3 µM) | 0.12 | 0.135 | 0.108 | 0.177 | 0.133 | 0.207 | 0.341 | 0.292 | 0.386 | 0.568 | 0.297 | 0.319
9 | CN(CCO)CC[C@H](CSc1ccccc1)Nc1ccc(S(=O)(=O)NC(=O)c2ccc(N3CCC([C@@H](O)c4ccccc4-c4ccc(Cl)cc4)CC3)cc2)cc1S(=O)(=O)C(F)(F)F [AZD4320] + C[C@@H](Nc1cc(F)cc(F)c1)c1cc(C(=O)N(C)C)cc2c(=O)cc(N3CCOCC3)oc12 [AZD8186] (first compound max 1 µM, 7x7, partner max 3 µM) | 0.482 | 0.776 | 0.612 | 0.551 | 0.974 | 0.672 | 0.987 | 0.504 | 0.231 | 0.735 | 0.911 | 0.874
10 | COc1cccc(OCCCN)c1-c1cc(Nc2cnc(C#N)cn2)n[nH]1 [Prexasertib] + Cc1cc2ncnn2cc1Nc1ncc2c(n1)n(C1CCOCC1)c(=O)n2C [AZD7648] (first compound max 1 µM, 7x7, partner max 10 µM) | 0.893 | 0.675 | 0.73 | 0.571 | 0.48 | 0.929 | 0.964 | 0.789 | 1 | 0.927 | 0.86 | 0.925
11 | CC1(C)CCC(CN2CCN(c3ccc(C(=O)NS(=O)(=O)c4ccc(NCC5CCOCC5)c([N+](=O)[O-])c4)c(Oc4cnc5[nH]ccc5c4)c3)CC2)=C(c2ccc(Cl)cc2)C1 [Venetoclax] + Cn1cnc2c(F)c(Nc3ccc(Br)cc3Cl)c(C(=O)NOCCO)cc21 [Selumetinib] (first compound max 1 µM, 7x7, partner max 3 µM) | 0.163 | 0.718 | 0.241 | 0.163 | 0.656 | 0.155 | 0.285 | 0.476 | 0.161 | 0.205 | 0.268 | 0.822
12 | CC(=O)c1c(C)c2cnc(Nc3ccc(N4CCNCC4)cn3)nc2n(C2CCCC2)c1=O [Palbociclib] + CC1(C)CCC(CN2CCN(c3ccc(C(=O)NS(=O)(=O)c4ccc(NCC5CCOCC5)c([N+](=O)[O-])c4)c(Oc4cnc5[nH]ccc5c4)c3)CC2)=C(c2ccc(Cl)cc2)C1 [Venetoclax] (first compound max 10 µM, 7x7, partner max 1 µM) | 0.355 | 0.492 | 0.237 | 0.0784 | 0.356 | 0.163 | 0.749 | 0.61 | 0.634 | 0.453 | 0.0297 | 0.189
13 | COc1nnc2ccc(N3CCC(c4ccc(OCCN5CCN(C)C(=O)[C@H]5C)cc4)CC3)nn12 [AZD5153] + Cc1c2c(nn1C)CSCc1cc(n(C)n1)CSc1cc(c3ccccc3c1)OCCCc1c(C(=O)O)n(C)c3c-2c(Cl)ccc13 [AZD5991] (first compound max 1 µM, 7x7, partner max 1 µM) | 0.459 | 0.79 | 0.706 | 0.264 | 0.851 | 0.865 | 0.948 | 0.585 | 0.968 | 0.991 | 0.362 | 0.896
14 | Cc1cc2ncnn2cc1Nc1ncc2c(n1)n(C1CCOCC1)c(=O)n2C [AZD7648] + CN(C)CCCOc1ccc(-c2ccc3ncc4c(c3c2)n(C2CCOCC2)c(=O)n4C)cn1 [AZD0156] (first compound max 10 µM, 7x7, partner max 1 µM) | 0.266 | 0.39 | 0.286 | 0.2 | 0.397 | 0.565 | 0.503 | 0.358 | 0.293 | 0.3 | 0.26 | 0.513
15 | CC1(C)CCC(CN2CCN(c3ccc(C(=O)NS(=O)(=O)c4ccc(NCC5CCOCC5)c([N+](=O)[O-])c4)c(Oc4cnc5[nH]ccc5c4)c3)CC2)=C(c2ccc(Cl)cc2)C1 [Venetoclax] + C[C@@H](Nc1cc(F)cc(F)c1)c1cc(C(=O)N(C)C)cc2c(=O)cc(N3CCOCC3)oc12 [AZD8186] (first compound max 1 µM, 7x7, partner max 3 µM) | 0.411 | 0.285 | 0.132 | 0.0567 | 0.106 | 0.372 | 0.64 | 0.184 | 0.141 | 0.152 | 0.197 | 0.734
16 | CC1(C)CCC(CN2CCN(c3ccc(C(=O)NS(=O)(=O)c4ccc(NCC5CCOCC5)c([N+](=O)[O-])c4)c(Oc4cnc5[nH]ccc5c4)c3)CC2)=C(c2ccc(Cl)cc2)C1 [Venetoclax] + Cc1cc2ncnn2cc1Nc1ncc2c(n1)n(C1CCOCC1)c(=O)n2C [AZD7648] (first compound max 1 µM, 7x7, partner max 10 µM) | 0.352 | 0.213 | 0.281 | 0.193 | 0.199 | 0.44 | 0.465 | 0.275 | 0.221 | 0.331 | 0.23 | 0.831
17 | Cc1nc(Nc2ncc(C(=O)Nc3c(C)cccc3Cl)s2)cc(N2CCN(CCO)CC2)n1 [Dasatinib] + CC(=O)Nc1cccc(-n2c(=O)n(C3CC3)c(=O)c3c(Nc4ccc(I)cc4F)n(C)c(=O)c(C)c32)c1 [Trametinib] (first compound max 2 µM, 7x7, partner max 1 µM) | 0.744 | 0.728 | 0.79 | 0.241 | 1 | 0.229 | 0.24 | 0.747 | 0.203 | 0.939 | 0.469 | 0.922
